Laboratory results as given in PubChem BioAssay AID651547 (The Scripps Research Institute Molecular Screening Center, 2012).
The source made the active and inactive calls.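 Rule for the calls: active = potency, meaning EC50, at or under 10 µM; inactive = the rest.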

Target: Melanocortin receptor 4 (Homo sapiens) (UniProt P32245)
Experiment: activators of MC4R Gs-cAMP pathway – cell-based, FRET, agonists, late-stage follow-up (AID 651547)
Settings: MC4R-expressing cells, cAMP TR-FRET (LANCE Ultra), agonist

Chain of Melanocortin receptor 4 (Homo sapiens) (P32245 whole entry, looked up): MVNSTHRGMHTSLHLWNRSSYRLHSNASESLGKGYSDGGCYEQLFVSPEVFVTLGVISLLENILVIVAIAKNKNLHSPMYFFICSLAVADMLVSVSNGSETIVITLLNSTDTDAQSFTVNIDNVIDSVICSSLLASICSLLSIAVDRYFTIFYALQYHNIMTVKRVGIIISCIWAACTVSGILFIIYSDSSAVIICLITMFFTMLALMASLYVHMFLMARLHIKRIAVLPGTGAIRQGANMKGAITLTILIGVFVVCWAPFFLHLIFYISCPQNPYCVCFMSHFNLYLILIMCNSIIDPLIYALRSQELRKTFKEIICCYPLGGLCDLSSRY

SMILES | EC50
CNC(=O)c1cc(Oc2ccc(NCC(=O)Nc3ccc(Cl)c(C(F)(F)F)c3)cc2)ccn1 | > 50 µM (inactive)
O=C1c2cccc3cccc(c23)C(=O)N1CC1CCN(CC(O)COc2ccc3ccccc3c2)CC1 (centres undefined) | > 50 µM (inactive)
CC(=O)c1ccc(Nc2nc3ccc(C(=O)N(CCC(C)C)CCC(C)C)cc3n2CCCN2CCCCC2)cc1 | > 50 µM (inactive)
COc1ccc(N(C(C)=O)C(C(=O)NC2CCCC2)c2cccs2)cc1OC (centres undefined) | > 50 µM (inactive)
CNC(=O)c1cc(Oc2ccc(NC(=O)CNc3ccc(Cl)c(C(F)(F)F)c3)cc2)ccn1 | > 50 µM (inactive)
Cc1ccccc1CN1Cc2cnnn2-c2ccccc2C1C#N (centres undefined) | > 50 µM (inactive)
C#CC(=O)N(c1ccc(OC)c(OC)c1)C(C(=O)NC1CCCC1)c1cccs1 (centres undefined) | > 50 µM (inactive)
CCC1CCCCN1S(=O)(=O)c1ccc(NC(=O)c2ccnc(SC)n2)cc1 (centres undefined) | > 50 µM (inactive)
CCC1CCCCN1S(=O)(=O)c1ccc(NC(=O)c2ccccc2)cc1 (centres undefined) | > 50 µM (inactive)
CC1CCCCN1S(=O)(=O)c1ccc(NC(=O)c2nc(S(C)(=O)=O)ncc2Cl)cc1 (centres undefined) | > 50 µM (inactive)
CNC(=O)c1cc(Oc2ccc(NC(=O)Nc3ccc(Cl)c(C(F)(F)F)c3)cc2)ccn1 | > 50 µM (inactive)
COc1ccccc1C1(CCNC(C)c2cccs2)CCOC(C(C)C)C1 (centres undefined) | > 50 µM (inactive)
CCC1CCCCN1S(=O)(=O)c1ccc(NC(=O)c2cccc(S(C)(=O)=O)c2)cc1 (centres undefined) | > 50 µM (inactive)
CCC1CCCCN1S(=O)(=O)c1ccc(NC(=O)c2nc(S(C)(=O)=O)ncc2Cl)cc1 (centres undefined) | > 50 µM (inactive)
